Assay results: patent publication US20240389885A1, “DAILY FASTING METHANE TO DETECT INTESTINAL METHANOGEN OVERGROWTH AND MONITOR TREATMENT RESPONSE” (Cedars-Sinai Medical Center, priority 2021, published 2024)

How the values were obtained:
[1] = test system: canine small bowel transit; details: infusion of CH4, canine; cited from earlier work
[2] = test system: subjects with IBS-C and IMO; experiment: EASE-DO randomized double-blind placebo-controlled trial (NCT03763175); format: in vivo, human; details: 14-week trial, adult patients with IBS-C and IMO, single daily oral doses vs placebo
Text: To evaluate the accuracy and temporal stability of SMM, and to assess its correlation with stool M. smithii loads, we analyzed data from a randomized double-blind placebo-controlled trial: Efficacy and Safety of Single, Daily Oral Doses of SYN-010 Compared to Placebo in Adult Patients with IBS-C (EASE-DO, NCT03763175).
Trial details: Efficacy and Safety of Single, Daily Oral Doses of SYN-010 Compared to Placebo in Adult Patients with IBS-C (EASE-DO, NCT03763175) was a 14-week single-center randomized double-blind placebo-controlled trial evaluating the effects of lovastatin lactone on subjects with IBS-C and IMO. Subjects were excluded if they were on statins, fibrates, niacin, narcotics, laxatives, tegaserod, lubiprostone, linaclotide, metoclopramide, prucalopride, domperidone, plecanatide, CandiBactin, Atrantil, Allimax/Allimed, antibiotics within 2 months and opioids within 3 months prior to the study. If subjects were on probiotics or fiber supplements, they were asked to not change their dose. […] All subjects enrolled in this study completed a 2-hour breath test at their initial visit and their weekly complete spontaneous bowel movement (CSBM) and spontaneous bowel movement (SBM) were recorded. After recording their baseline CSBM and SBM for 2 weeks, subjects returned to the lab and their SMM and stool samples were collected (FIG. 1). […]

Compound	effect on small bowel transit [1]	primary endpoint, interim futility analysis [2]
C [CH4, methane]	slows canine small bowel transit	
CC[C@H](C)C(=O)O[C@H]1C[C@@H](C)C=C2C=C[C@H](C)[C@H](CC[C@@H]3C[C@@H](O)CC(=O)O3)[C@H]21 [SYN-010, lovastatin lactone]		not meeting the primary endpoint
